{"source": "patent US20250066359A1", "about": "“SOMATOSTATIN RECEPTOR SUBTYPE 5 ANTAGONISTS, AND PHARMACEUTICAL COMPOSITION AND USE THEREOF” (SHANGHAI INSTITUTE OF MATERIA MEDICA, CHINESE ACADEMY OF …, priority 2021, published 2025)", "data": [{"molecular_target": "T1, hSSTR5 (Homo sapiens, UniProt P35346)", "T1 construct": "expressed in transfected cells; host or cells: CHO cells co-expressing Gα16 (hSSTR5-CHO-Gα16)", "T1 sequence (P35346 whole entry)": "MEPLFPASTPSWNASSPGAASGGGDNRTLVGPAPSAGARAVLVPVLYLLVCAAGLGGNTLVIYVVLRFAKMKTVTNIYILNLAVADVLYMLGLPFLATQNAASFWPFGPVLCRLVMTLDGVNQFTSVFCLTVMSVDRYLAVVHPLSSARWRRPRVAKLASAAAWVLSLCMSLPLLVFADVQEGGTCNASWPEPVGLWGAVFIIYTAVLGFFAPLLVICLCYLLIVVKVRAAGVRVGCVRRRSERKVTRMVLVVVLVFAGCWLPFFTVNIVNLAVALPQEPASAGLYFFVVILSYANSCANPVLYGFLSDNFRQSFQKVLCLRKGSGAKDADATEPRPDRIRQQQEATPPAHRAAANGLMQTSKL", "test": "SSTR5 antagonistic activity in vitro by calcium flow detection (hSSTR5-CHO-Gα16 cells)", "format": "cell-based", "conditions": "hSSTR5-CHO-Gα16 cells, 100 nM Somatostatin-14 agonist, Fluo-4 fluorescence 525 nm", "excerpt": "(§1) Testing SSTR5 antagonistic activity in vitro by Calcium flow detection method Experimental principle: After the receptor binds to the ligand and is activated, it can cause the activation of Gα16 protein, which further activates phospholipase C(PLC) to produce IP3 and DAG. IP3 can bind to the IP3 receptors on the endoplasmic reticulum and mitochondria in the cell, thereby causing the release of intracellular calcium. Therefore, measuring the changes in intracellular calcium can be used in the method to detect the activation state of hSSTR5. Fluo-4/AM is a calcium fluorescent probe indicator used to measure calcium ions. As a non-polar lipid-soluble compound, after it enters the cell, the AM group therein dissociates, and Fluo-4 is released under the action of cellular lipase; because Fluo-4 is a polar molecule and is not easy to pass through the lipid bilayer membrane, it can keep Fluo-4 in the cell fora longtime. Finally, the level of Ga protein activation can be reflected by measuring the intensity of the excited fluorescence. Somatostatin, an agonist of SSTR5, can activate SSTR5 receptors and greatly increase the calcium flow response. The SSTR5 antagonist to be tested can inhibit the agonist activity of the SSTR5 receptor and reduce the calcium increased flow response of the receptor stimulated by the agonist.\n(§2) • (1) The hSSTR5-CHO-Gα16 and mSSTR5-CHO-Gα16 cell lines stably expressing hSSTR5 or mSSTR5 receptors were seeded at a density of 30,000/well in a 96-well plate and cultured in a 37° C. incubator overnight. • (2) The cells was aspirated off the culture medium, added with freshly prepared dye at 40 μL/well, and incubated in a 37° C. incubator for 45 minutes. • (3) After the dye was aspirated and discarded, the cells were washed with freshly prepared calcium buffer and the culture medium was replaced with 50 μL of calcium buffer. • (4) The SSTR5 agonist Somatostatin-14 was diluted and mixed evenly with calcium buffer. • (5) Detection was performed using a Flextation instrument. Starting from the 15th second, 25 μL of the pre-prepared agonist was automatically added by the instrument, and the fluorescence value at 525 nm was read.", "units": {"IC50": "µM"}, "values": [{"smiles": "CCOc1cc(CN2CC3(CC(=O)N(c4ccc(C(=O)O)cc4)C3)C2)c(C2CC2)cc1C", "note": "[Example 8, 4-(2-(2-cyclopropyl-5-ethoxy-4-methylbenzyl)-7-oxo-2,6-diazaspiro[3.4]octane-6-yl)benzoic acid]", "IC50": "0.05 to 0.2"}, {"smiles": "CCOc1cc(CN2CCC3(CC2)CN(c2ccc(C(=O)O)cc2)C3)c(-c2ccc(F)c(F)c2F)cc1C", "note": "[Example 20, 4-(7-((4-ethoxy-2′,3′,4′-trifluoro-5-methyl-[1,1′-biphenyl]-2-yl)methyl)-2,7-diazaspiro[3,5]nonan-2-yl)benzoic acid]", "IC50": "0.05 to 0.2"}, {"smiles": "O=C(O)c1ccc(N2CC3(CC2=O)CN(Cc2cc(C(F)(F)F)ccc2C2CC2)C3)cc1", "note": "[Example 23, 4-(2-(2-cyclopropyl-5-(trifluoromethyl)benzyl)-7-oxo-2,6-diazaspiro[3.4]octyl-6-yl)benzoic acid]", "IC50": "> 0.2"}, {"smiles": "CCOc1cc(CN2CCN(S(=O)(=O)c3ccc(C(=O)O)cc3)CC2)cc(OCC)c1-c1ccc(F)cc1", "note": "[Example 17, 4-((4-((2,6-diethoxy-4′-fluoro-[1,1′-biphenyl]-4-yl)methyl)piperazin-1-yl)sulfonyl)benzoic acid]", "IC50": "0.05 to 0.2"}, {"smiles": "CCOc1cc(CN2CCC3(CC2)CN(c2ccc(C(=O)O)cc2)C3)ccc1N(CC)CC", "note": "[Example 25, 4-(7-(4-(diethylamino)-3-ethoxybenzyl)-2,7-diazaspiro[3.5]nonan-2-yl)benzoic acid]", "IC50": "0.05 to 0.2"}, {"smiles": "CCOc1cc(CN2CCC3(CC2)CN(c2ccc(C(=O)O)cc2)C3=O)cc(OCC)c1-c1ccc(F)cc1", "note": "[Example 18, 4-(7-((2,6-diethoxy-4′-fluoro-[1,1′-biphenyl]-4-yl)methyl)-1-oxo-2,7-diazaspiro[3.5]nonan-2-yl)benzoic acid]", "IC50": "0.0001 to 0.05"}, {"smiles": "CCOc1cc(CN2CCC(C3CN(c4ccc(C(=O)O)cc4)C3)CC2)cc(OCC)c1-c1ccc(F)cc1", "note": "[Example 4, 4-(3-(1-((2,6-diethoxy-4′-fluoro-[1,1′-biphenyl]-4-yl)methyl)piperidin-4-yl)azetidin-1-yl)benzoic acid]", "IC50": "0.05 to 0.2"}, {"smiles": "CCOc1cc(CN2CCC3(CC2)CCN(c2ccc(C(=O)O)cc2)C(=O)C3)cc(OCC)c1-c1ccc(F)cc1", "note": "[Example 3, 4-(9-((2,6-diethoxy-4′-fluoro-[1,1′-biphenyl]-4-yl)methyl)-2-oxo-3,9-diazaspiro[5.5]undec-3-yl)benzoic acid]", "IC50": "0.05 to 0.2"}, {"smiles": "CCOc1cc(CN2CC3(CC(=O)N(c4ccc(C(=O)O)cc4)C3)C2)ccc1F", "note": "[Example 21, 4-(2-(3-ethoxy-4-fluorobenzyl)-7-oxy-2,6-diazaspiro[3.4]octan-6-yl)benzoic acid]", "IC50": "> 0.2"}, {"smiles": "CCOc1cc(CN2CC3(CC(Nc4ccc(C(=O)O)cc4)C3)C2)cc(OCC)c1-c1ccc(F)cc1", "note": "[Example 6, 4-((2-((2,6-diethoxy-4′-fluoro-[1,1′-biphenyl]-4-yl)methyl)-2-azaspiro[3.3]heptane-6-yl)amino)benzoic acid]", "IC50": "> 0.2"}, {"smiles": "CCOc1cc(CN2CCC3(CC2)CN(c2ccc(C(=O)O)cc2)C3)c(C2CC2)cc1C", "note": "[Example 19, 4-(7-(2-cyclopropyl-5-ethoxy-4-methylbenzyl)-2,7-diazaspiro[3,5]nonan-2-yl)benzoic acid]", "IC50": "0.0001 to 0.05"}, {"smiles": "CCOc1cc(CN2CCN(C3CCN(S(=O)(=O)c4ccc(C(=O)O)cc4)CC3)CC2)cc(OCC)c1-c1ccc(F)cc1", "note": "[Example 15, 4-((4-(4-((2,6-diethoxy-4′-fluoro-[1,1′-biphenyl]-4-yl)methyl)piperazin-1-yl)piperidin-1-yl)sulfonyl)benzoic acid]", "IC50": "> 0.2"}, {"smiles": "CCOc1cc(CN2CCC3(CC2)CN(c2ccc(C(=O)O)cc2)C3)ccc1F", "note": "[Example 24, 4-(7-(3-ethoxy-4-fluorobenzyl)-2,7-diazaspiro[3.5]nonan-2-yl)benzoic acid]", "IC50": "0.05 to 0.2"}, {"smiles": "CCOc1cc(CN2CC3(CC(=O)N(c4ccc(C(=O)O)cc4)C3)C2)ccc1C", "note": "[Example 22, 4-(2-(3-ethoxy-4-methylbenzyl)-7-oxy-2,6-diazaspiro[3.4]octan-6-yl)benzoic acid]", "IC50": "> 0.2"}]}, {"molecular_target": "T1, hSSTR5", "test": "SSTR5 antagonistic activity in vitro by calcium flow detection (hSSTR5-CHO-Gα16 cells)", "format": "cell-based", "conditions": "summary of Table 1", "excerpt": "as §1, §2", "values": [{"smiles": "CCOc1cc(CN2CCC3(CC2)CN(c2ccc(C(=O)O)cc2)C3=O)cc(OCC)c1-c1ccc(F)cc1", "note": "[Example 18, 4-(7-((2,6-diethoxy-4′-fluoro-[1,1′-biphenyl]-4-yl)methyl)-1-oxo-2,7-diazaspiro[3.5]nonan-2-yl)benzoic acid]", "SSTR5 antagonistic activity (in words)": "potent SSTR5 antagonistic activity"}, {"smiles": "CCOc1cc(CN2CCC3(CC2)CN(c2ccc(C(=O)O)cc2)C3)c(C2CC2)cc1C", "note": "[Example 19, 4-(7-(2-cyclopropyl-5-ethoxy-4-methylbenzyl)-2,7-diazaspiro[3,5]nonan-2-yl)benzoic acid]", "SSTR5 antagonistic activity (in words)": "potent SSTR5 antagonistic activity"}]}]}
